Measured values published in patent US20060069132A1, “Azolecarboxamide herbicides” (priority 2004, published 2006).

How the values were obtained:
goosegrass = assay: Test C pre-/postemergence herbicide test; type: in vivo, Eleusine indica; conditions: for Goosegrass plant response rating: 500 g ai/ha
How it was run: (§1)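 Preemergence: seeds planted and treated with compound in non-phytotoxic solvent with surfactant; postemergence: plants at 2 to 18 cm (1- to 4-leaf stage) sprayed likewise. Kept in greenhouse 12 to 14 days, then visually rated against controls, 0 (no effect) to 100 (complete control).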

morningglory = assay: Test A pre-/postemergence herbicide test; type: in vivo, Ipomoea spp.
How it was run: (§2)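 Sandy loam soil given preemergence directed spray; plants at 2 to 10 cm, one- to two-leaf stage, sprayed to runoff postemergence, compounds in non-phytotoxic solvent with surfactant. Injury rated visually versus untreated controls after about ten greenhouse days, 0 (no effect) to 100 (complete control); dash means not tested.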

barnyardgrass = assay: Test A pre-/postemergence herbicide test; type: in vivo, Echinochloa crus-galli
How it was run: as §2

johnsongrass = assay: Test C pre-/postemergence herbicide test; type: in vivo, Sorghum halepense; conditions: for Johnsongrass plant response rating: 500 g ai/ha
How it was run: as §1

bermudagrass = assay: Test C pre-/postemergence herbicide test; type: in vivo, Cynodon dactylon
How it was run: as §1

cocklebur = assay: Test C pre-/postemergence herbicide test; type: in vivo, Xanthium strumarium; conditions: for Cocklebur plant response rating: 500 g ai/ha
How it was run: as §1

velvetleaf [1] = assay: Test A pre-/postemergence herbicide test; type: in vivo, Abutilon theophrasti
How it was run: as §2

velvetleaf [2] = assay: Test C pre-/postemergence herbicide test; type: in vivo, Abutilon theophrasti; conditions: for Velvetleaf plant response rating: 500 g ai/ha
How it was run: as §1

soybean = assay: Test C pre-/postemergence herbicide test; type: in vivo, Glycine max; conditions: for Soybean plant response rating: 500 g ai/ha
How it was run: as §1

corn = assay: Test C pre-/postemergence herbicide test; type: in vivo, Zea mays; conditions: for Corn plant response rating: 500 g ai/ha
How it was run: as §1

[3] = 31 g ai/ha, preemergence, scale 0 to 100
[4] = 125 g ai/ha, scale 0 (no effect) to 100 (complete control), visual, 12 to 14 days, preemergence
[5] = 250 g ai/ha, scale 0 to 100 (0 no effect, 100 complete control), visual, 12 to 14 days, preemergence
[6] = Postemergence, 250 g ai/ha, scale 0 to 100, 0 no effect, 100 complete control
[7] = postemergence, 125 g ai/ha, scale 0 to 100
[8] = postemergence, 62 g ai/ha, scale 0 to 100
[9] = Postemergence, 500 g ai/ha, 0 to 100 scale, 0 no effect, 100 complete control
[10] = Postemergence, 2000 g ai/ha, 0 to 100 scale, 0 no effect, 100 complete control
[11] = Preemergence, 500 g ai/ha, visual rating, 0 to 100 scale (0 no effect, 100 complete control)
[12] = Preemergence, 2000 g ai/ha, 0 to 100 scale, 0 no effect, 100 complete control
[13] = postemergence, 31 g ai/ha, scale 0 to 100
[14] = Preemergence, scale 0 to 100, 0 no effect, 100 complete control
[15] = Preemergence, 2000 g ai/ha, visual rating, 0 to 100 scale (0 no effect, 100 complete control)

## CCn1nc(C(C)(C)C)cc1C(=O)Nc1ccc(F)c(C(=O)NCCF)c1 [Compound 60]
goosegrass; [3]
  Plant response rating, Goosegrass: 10
goosegrass; 62 g ai/ha, preemergence
  Plant response rating (0 = no effect, 100 = complete control), Goosegrass: 55
goosegrass; [4]
  Plant response rating, Goosegrass: 85
goosegrass; [5]
  Plant response rating, Goosegrass: 95
goosegrass; [6]
  Plant response rating, Goosegrass: 5
goosegrass; [7]
  Plant response rating, Goosegrass: 0
goosegrass; [8]
  Plant response rating, Goosegrass: 0
morningglory; [9]
  Plant response rating, Morningglory: 10
morningglory; [10]
  Plant response rating, Morningglory: 20
morningglory; [11]
  Morningglory plant response rating: 10
morningglory; [12]
  Morningglory plant response rating: 40
barnyardgrass; [9]
  Plant response rating, Barnyardgrass: 35
barnyardgrass; [10]
  Plant response rating, Barnyardgrass: 70
barnyardgrass; [11]
  Barnyardgrass plant response rating: 50
barnyardgrass; [12]
  Barnyardgrass plant response rating: 85
johnsongrass; [3]
  Plant response rating, Johnsongrass: 5
johnsongrass; 62 g ai/ha, preemergence
  Plant response rating (0 = no effect, 100 = complete control), Johnsongrass: 10
johnsongrass; [4]
  Plant response rating, Johnsongrass: 50
johnsongrass; [5]
  Plant response rating, Johnsongrass: 60
johnsongrass; [6]
  Plant response rating, Johnsongrass: 0
johnsongrass; [7]
  Plant response rating, Johnsongrass: 0
johnsongrass; [8]
  Plant response rating, Johnsongrass: 0
bermudagrass; [3]
  Plant response rating, Bermudagrass: 30
bermudagrass; 62 g ai/ha, preemergence
  Plant response rating (0 = no effect, 100 = complete control), Bermudagrass: 80
bermudagrass; [4]
  Plant response rating, Bermudagrass: 100
bermudagrass; [5]
  Plant response rating, Bermudagrass: 100
bermudagrass; Postemergence, 250 g ai/ha, scale 0 to 100
  Bermudagrass plant response rating: 5
bermudagrass; [7]
  Plant response rating, Bermudagrass: 0
bermudagrass; [13]
  Plant response rating, Bermudagrass: 0
bermudagrass; [8]
  Plant response rating, Bermudagrass: 0
cocklebur; [3]
  Plant response rating, Cocklebur: 0
cocklebur; 62 g ai/ha, preemergence
  Plant response rating (0 = no effect, 100 = complete control), Cocklebur: 0
cocklebur; [4]
  Plant response rating, Cocklebur: 0
cocklebur; [5]
  Plant response rating, Cocklebur: 5
cocklebur; [6]
  Plant response rating, Cocklebur: 10
cocklebur; [7]
  Plant response rating, Cocklebur: 10
cocklebur; [13]
  Plant response rating, Cocklebur: 10
cocklebur; [8]
  Plant response rating, Cocklebur: 10
Velvetleaf [1]; [10]
  Plant response rating, Velvetleaf: 20
Velvetleaf [1]; [11]
  Velvetleaf plant response rating: 65
Velvetleaf [1]; [12]
  Velvetleaf plant response rating: 95
Velvetleaf [2]; [3]
  Plant response rating, Velvetleaf: 5
Velvetleaf [2]; [4]
  Plant response rating, Velvetleaf: 70
Velvetleaf [2]; [5]
  Plant response rating, Velvetleaf: 85
Velvetleaf [2]; [6]
  Plant response rating, Velvetleaf: 30
Velvetleaf [2]; [7]
  Plant response rating, Velvetleaf: 20
Velvetleaf [2]; [8]
  Plant response rating, Velvetleaf: 20
soybean; [3]
  Plant response rating, Soybean: 0
soybean; 62 g ai/ha, preemergence
  Plant response rating (0 = no effect, 100 = complete control), Soybean: 0
soybean; [4]
  Plant response rating, Soybean: 0
soybean; [5]
  Plant response rating, Soybean: 0
soybean; [6]
  Plant response rating, Soybean: 50
soybean; [7]
  Plant response rating, Soybean: 40
soybean; [8]
  Plant response rating, Soybean: 20
corn; [3]
  Plant response rating, Corn: 0
corn; 62 g ai/ha, preemergence
  Plant response rating (0 = no effect, 100 = complete control), Corn: 0
corn; [4]
  Plant response rating, Corn: 0
corn; [5]
  Plant response rating, Corn: 0
corn; [6]
  Plant response rating, Corn: 0
corn; [7]
  Plant response rating, Corn: 0
corn; [8]
  Plant response rating, Corn: 0

## CCN(CC)C(=O)c1cccc(NC(=O)c2cc(C(C)(C)C)nn2CC)n1 [Compound 145]
goosegrass; 62 g ai/ha, preemergence
  Plant response rating (0 = no effect, 100 = complete control), Goosegrass: 50
goosegrass; [4]
  Plant response rating, Goosegrass: 70
goosegrass; [14]
  Goosegrass plant response rating: 80
morningglory; [9]
  Morningglory plant response rating: 15
morningglory; [10]
  Plant response rating, Morningglory: 30
morningglory; [11]
  Morningglory plant response rating: 20
morningglory; [15]
  Morningglory plant response rating: 25
barnyardgrass; [9]
  Barnyardgrass plant response rating: 40
barnyardgrass; [10]
  Plant response rating, Barnyardgrass: 100
barnyardgrass; [11]
  Barnyardgrass plant response rating: 95
barnyardgrass; [15]
  Barnyardgrass plant response rating: 100
johnsongrass; 62 g ai/ha, preemergence
  Plant response rating (0 = no effect, 100 = complete control), Johnsongrass: 50
johnsongrass; [4]
  Plant response rating, Johnsongrass: 65
johnsongrass; [14]
  Johnsongrass plant response rating: 90
bermudagrass; 62 g ai/ha, preemergence
  Plant response rating (0 = no effect, 100 = complete control), Bermudagrass: 20
bermudagrass; [4]
  Plant response rating, Bermudagrass: 60
bermudagrass; [5]
  Plant response rating, Bermudagrass: 80
bermudagrass; Preemergence, 500 g ai/ha, scale 0 to 100, 0 no effect, 100 complete control
  Bermudagrass plant response rating: 90
cocklebur; 62 g ai/ha, preemergence
  Plant response rating (0 = no effect, 100 = complete control), Cocklebur: 0
cocklebur; [4]
  Plant response rating, Cocklebur: 0
cocklebur; [5]
  Plant response rating, Cocklebur: 0
cocklebur; [14]
  Cocklebur plant response rating: 0
Velvetleaf [1]; [9]
  Velvetleaf plant response rating: 30
Velvetleaf [1]; [10]
  Plant response rating, Velvetleaf: 55
Velvetleaf [1]; [15]
  Velvetleaf plant response rating: 90
Velvetleaf [1]; preemergence, 500 g ai/ha, visual injury, 0 to 100 scale (0 no effect, 100 complete control)
  Velvetleaf plant response rating: 75
Velvetleaf [2]; [4]
  Plant response rating, Velvetleaf: 20
Velvetleaf [2]; [14]
  Velvetleaf plant response rating: 100
soybean; [4]
  Plant response rating, Soybean: 10
soybean; [14]
  Soybean plant response rating: 60
corn; 62 g ai/ha, preemergence
  Plant response rating (0 = no effect, 100 = complete control), Corn: 0
corn; [4]
  Plant response rating, Corn: 0
corn; [5]
  Plant response rating, Corn: 5
corn; [14]
  Corn plant response rating: 20

## C=CCOC(=O)c1cccc(NC(=O)c2cc(C(C)(C)C)nn2CC)c1 [Compound 85]
goosegrass; Postemergence, scale 0 to 100
  Goosegrass plant response rating: 60
goosegrass; [6]
  Plant response rating, Goosegrass: 60
goosegrass; [7]
  Plant response rating, Goosegrass: 40
goosegrass; [8]
  Plant response rating, Goosegrass: 35
morningglory; [9]
  Morningglory plant response rating: 20
morningglory; [10]
  Plant response rating, Morningglory: 25
morningglory; [11]
  Morningglory plant response rating: 0
morningglory; [12]
  Morningglory plant response rating: 5
barnyardgrass; [9]
  Barnyardgrass plant response rating: 20
barnyardgrass; [10]
  Plant response rating, Barnyardgrass: 25
barnyardgrass; [11]
  Barnyardgrass plant response rating: 0
barnyardgrass; [12]
  Barnyardgrass plant response rating: 0
johnsongrass; Postemergence, scale 0 to 100
  Johnsongrass plant response rating: 80
johnsongrass; [6]
  Plant response rating, Johnsongrass: 20
johnsongrass; [7]
  Plant response rating, Johnsongrass: 10
johnsongrass; [8]
  Plant response rating, Johnsongrass: 10
bermudagrass; Postemergence, 500 g ai/ha, scale 0 to 100
  Bermudagrass plant response rating: 70
bermudagrass; [7]
  Plant response rating, Bermudagrass: 65
bermudagrass; [8]
  Plant response rating, Bermudagrass: 0
cocklebur; Postemergence, scale 0 to 100
  Cocklebur plant response rating: 100
cocklebur; [6]
  Plant response rating, Cocklebur: 100
cocklebur; [7]
  Plant response rating, Cocklebur: 80
cocklebur; [8]
  Plant response rating, Cocklebur: 20
Velvetleaf [1]; [9]
  Velvetleaf plant response rating: 30
Velvetleaf [1]; [10]
  Plant response rating, Velvetleaf: 20
Velvetleaf [1]; [11]
  Velvetleaf plant response rating: 0
Velvetleaf [1]; [15]
  Velvetleaf plant response rating: 0
Velvetleaf [2]; Postemergence, scale 0 to 100
  Velvetleaf plant response rating: 85
Velvetleaf [2]; [6]
  Plant response rating, Velvetleaf: 80
Velvetleaf [2]; [7]
  Plant response rating, Velvetleaf: 75
Velvetleaf [2]; [8]
  Plant response rating, Velvetleaf: 60
soybean; Postemergence, scale 0 to 100
  Soybean plant response rating: 95
soybean; [6]
  Plant response rating, Soybean: 80
soybean; [7]
  Plant response rating, Soybean: 60
soybean; [8]
  Plant response rating, Soybean: 55
corn; Postemergence, scale 0 to 100
  Corn plant response rating: 45
corn; [6]
  Plant response rating, Corn: 35
corn; [7]
  Plant response rating, Corn: 30
corn; [8]
  Plant response rating, Corn: 30
